In patent publication US20210101874A1, “MICROBIOCIDAL OXADIAZOLE DERIVATIVES” (SYNGENTA PARTICIPATIONS AG, priority 2017, published 2021):

Legend:
[1] = tested on: Puccinia recondita f. sp. Tritici; assay: Puccinia recondita f. sp. tritici / wheat / leaf disc preventative (brown rust); format: in vivo; conditions: foliar, 200 ppm in the applied formulation, wheat leaf segments cv. Kanzler, inoculated 1 day after application, compared to untreated, assessed 7 to 9 days after application, read-out: disease control
In short: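 Wheat cv. Kanzler leaf segments on agar sprayed with diluted compound, inoculated with brown rust spores 1 day later. Kept at 19° C., 75% rh, 12 h light/dark; percent disease control versus untreated segments scored 7 to 9 days after application, compounds tested at 200 ppm.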

[2] = tested on: Glomerella lagenarium (Colletotrichum lagenarium); assay: Glomerella lagenarium (Colletotrichum lagenarium) liquid culture / cucumber / preventative (anthracnose); format: cell-based; conditions: Colletotrichum orbiculare; 20 ppm in the applied formulation; conidia in PDB nutrient broth, 24° C.; 3 to 4 days after application; compared to untreated; read-out: disease control (inhibition of growth measured photometrically)
In short: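 Test compound, diluted from DMSO, was mixed in microtiter wells with fungal conidia taken from cryogenic storage and suspended in PDB nutrient broth. After 3 to 4 days at 24 °C, photometric growth measurement gave antifungal activity as a percentage of the untreated control.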

[3] = tested on: Puccinia recondita f. sp. Tritici; assay: Puccinia recondita f. sp. tritici / wheat / leaf disc curative (brown rust); format: in vivo; conditions: foliar, 200 ppm in the applied formulation, wheat leaf segments cv. Kanzler, applied 1 day after inoculation, compared to untreated, assessed 6 to 8 days after application, read-out: disease control
In short: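 Compounds, prepared from DMSO solutions of at most 10 mg/ml and diluted just before spraying, are applied curatively to inoculated Kanzler wheat leaf segments. Segments are incubated at 19° C and 75% RH in a climate cabinet; disease control relative to untreated is evaluated 6 to 8 days later.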

SMILES | pest or weed control at 200 ppm [1] [%] | inhibition at 20 ppm [2] [%] | melting point [°C] | pest or weed control at 200 ppm [3] [%]
CN(Cc1ccc(-c2noc(C(F)(F)F)n2)cc1)S(=O)(=O)Cc1ccccc1 [Compound 1.14, N-methyl-1-phenyl-N-[[4-[5-(trifluoromethyl)-1,2,4-oxadiazol-3-yl]phenyl]methyl] methanesulfonamide] | ≥ 80 | ≥ 80 | 109 to 111 | 
CCCNS(=O)(=O)N(Cc1ccc(-c2noc(C(F)(F)F)n2)cc1)C1CC1 [Compound 1.21, 3-[4-[[cyclopropyl (propylsulfamoyl)amino]methyl]phenyl]-5-(trifluoromethyl)-1,2,4-oxadiazole] |  | ≥ 80 | 70 to 73 | 
CON(Cc1ccc(-c2noc(C(F)(F)F)n2)cc1)S(=O)(=O)C1CC1 [Compound 1.9, N-methoxy-N-[[4-[5-(trifluoromethyl)-1,2,4-oxadiazol-3-yl]phenyl]methyl] cyclopropanesulfonamide] |  | ≥ 80 | 73 to 75 | 
O=S(=O)(NCc1ccc(-c2noc(C(F)(F)F)n2)cc1)c1ccc(F)cc1F [Compound 3.5, 2,4-difluoro-N-[[4-[5-(trifluoromethyl)-1,2,4-oxadiazol-3-yl]phenyl]methyl] benzenesulfonamide] | ≥ 80 |  | 112 to 115 | 
CN(C)S(=O)(=O)N(Cc1ccc(-c2noc(C(F)(F)F)n2)cc1)C1CC1 [Compound 1.6, N-(dimethylsulfamoyl)-N-[[4-[5-(trifluoromethyl)-1,2,4-oxadiazol-3-yl]phenyl]methyl] cyclopropanamine] | ≥ 80 | ≥ 80 | 82 to 84 | 
O=S(=O)(NCc1ccc(-c2noc(C(F)(F)F)n2)cc1)c1ccccc1 [Compound 3.1, N-[[4-[5-(trifluoromethyl)-1,2,4-oxadiazol-3-yl]phenyl]methyl] benzenesulfonamide] | ≥ 80 | ≥ 80 | 116 to 124 | 
O=S(=O)(Cc1ccccc1)Nc1ccc(-c2noc(C(F)(F)F)n2)cc1 [Compound 3.34, 1-phenyl-N-[4-[5-(trifluoromethyl)-1,2,4-oxadiazol-3-yl]phenyl]methane-sulfonamide] |  | ≥ 80 | 125 to 135 | 
CON(Cc1ccc(-c2noc(C(F)(F)F)n2)cc1)S(C)(=O)=O [Compound 1.5, N-methoxy-N-[[4-[5-(trifluoromethyl)-1,2,4-oxadiazol-3-yl]phenyl]methyl] methanesulfonamide] |  | ≥ 80 | 94 to 96 | ≥ 80
CNS(=O)(=O)N(C)Cc1ccc(-c2noc(C(F)(F)F)n2)cc1 [Compound 1.56, 3-[4-[[methyl (methylsulfamoyl)amino]methyl]phenyl]-5-(trifluoromethyl)-1,2,4-oxadiazole] | ≥ 80 | ≥ 80 |  | ≥ 80
O=S(=O)(NCc1ccc(-c2noc(C(F)(F)F)n2)cc1F)N1CCCC1 [Compound 3.27, N-[[2-fluoro-4-[5-(trifluoromethyl)-1,2,4-oxadiazol-3-yl]phenyl]methyl] pyrrolidine-1-sulfonamide] | ≥ 80 | ≥ 80 |  | ≥ 80
C/C=C/S(=O)(=O)NCc1ccc(-c2noc(C(F)(F)F)n2)c(F)c1 [Compound 2.19, (E)-N-[[3-fluoro-4-[5-(trifluoromethyl)-1,2,4-oxadiazol-3-yl]phenyl]methyl] prop-1-ene-1-sulfonamide] | ≥ 80 | ≥ 80 |  | ≥ 80
O=S(=O)(N1CCOCC1)N(Cc1ccc(-c2noc(C(F)(F)F)n2)cc1)C1CC1 [Compound 1.7, N-cyclopropyl-N-[[4-[5-(trifluoromethyl)-1,2,4-oxadiazol-3-yl]phenyl]methyl] morpholine-4-sulfonamide] | ≥ 80 | ≥ 80 | 99 to 101 | 
CS(=O)(=O)NCc1ccc(-c2noc(C(F)(F)F)n2)c(F)c1 [Compound 2.26, N-[[3-fluoro-4-[5-(trifluoromethyl)-1,2,4-oxadiazol-3-yl]phenyl]methyl] methanesulfon-amide] | ≥ 80 | ≥ 80 |  | ≥ 80
C=CCS(=O)(=O)N(C)Cc1ccc(-c2noc(C(F)(F)F)n2)cc1 [Compound 1.46, N-methyl-N-[[4-[5-(trifluoromethyl)-1,2,4-oxadiazol-3-yl]phenyl]methyl] prop-2-ene-1-sulfonamide] | ≥ 80 | ≥ 80 |  | ≥ 80
CCS(=O)(=O)NCc1ccc(-c2noc(C(F)(F)F)n2)c(F)c1 [Compound 2.24, N-[[3-fluoro-4-[5-(trifluoromethyl)-1,2,4-oxadiazol-3-yl]phenyl]methyl] ethanesulfon-amide] | ≥ 80 | ≥ 80 |  | ≥ 80
CCN(Cc1ccc(-c2noc(C(F)(F)F)n2)cc1)S(=O)(=O)CC1CCOC1 (centres unmarked) [Compound 1.35, N-ethyl-1-tetrahydrofuran-3-yl-N-[[4-[5-(trifluoromethyl)-1,2,4-oxadiazol-3-yl]phenyl]methyl] methanesulfonamide] | ≥ 80 | ≥ 80 |  | ≥ 80
O=S(=O)(CC1CCOC1)NCc1ccc(-c2noc(C(F)(F)F)n2)c(F)c1 (centres unmarked) [Compound 3.20, N-[[3-fluoro-4-[5-(trifluoromethyl)-1,2,4-oxadiazol-3-yl]phenyl]methyl]-1-tetrahydrofuran-3-yl-methanesulfonamide] | ≥ 80 | ≥ 80 |  | ≥ 80
O=S(=O)(NCc1ccc(-c2noc(C(F)(F)F)n2)cc1)N1CCOCC1 [Compound 3.8, N-[[4-[5-(trifluoromethyl)-1,2,4-oxadiazol-3-yl]phenyl]methyl] morpholine-4-sulfonamide] | ≥ 80 | ≥ 80 | 108 to 110 | ≥ 80
CN(C)S(=O)(=O)NCc1ccc(-c2noc(C(F)(F)F)n2)c(F)c1 [Compound 2.30, 3-[4-[(dimethyl-sulfamoylamino)methyl]-2-fluoro-phenyl]-5-(trifluoromethyl)-1,2,4-oxadiazole] | ≥ 80 | ≥ 80 |  | ≥ 80
C#CCNS(=O)(=O)N(C)Cc1ccc(-c2noc(C(F)(F)F)n2)cc1 [Compound 1.19, 3-[4-[[methyl(prop-2-ynylsulfamoyl)amino]methyl]phenyl]-5-(trifluoromethyl)-1,2,4-oxadiazole] | ≥ 80 | ≥ 80 |  | ≥ 80
Cn1ccc(S(=O)(=O)NCc2ccc(-c3noc(C(F)(F)F)n3)cc2)n1 [Compound 3.10, 1-methyl-N-[[4-[5-(trifluoromethyl)-1,2,4-oxadiazol-3-yl]phenyl]methyl] pyrazole-3-sulfonamide] | ≥ 80 | ≥ 80 |  | ≥ 80
C=CCS(=O)(=O)NCc1ccc(-c2noc(C(F)(F)F)n2)c(F)c1 [Compound 2.15, N-[[3-fluoro-4-[5-(trifluoromethyl)-1,2,4-oxadiazol-3-yl]phenyl]methyl] prop-2-ene-1-sulfonamide] | ≥ 80 | ≥ 80 |  | ≥ 80
COC(=O)CCS(=O)(=O)NCc1ccc(-c2noc(C(F)(F)F)n2)c(F)c1 [Compound 2.16, methyl 3-[[3-fluoro-4-[5-(trifluoromethyl)-1,2,4-oxadiazol-3-yl]phenyl]methyl-sulfamoyl] propanoate] | ≥ 80 | ≥ 80 |  | ≥ 80
O=S(=O)(NCc1ccc(-c2noc(C(F)(F)F)n2)cc1F)C1CC1 [Compound 3.29, N-[[2-fluoro-4-[5-(trifluoromethyl)-1,2,4-oxadiazol-3-yl]phenyl]methyl] cyclopropanesulfon-amide] | ≥ 80 | ≥ 80 |  | ≥ 80
COCCS(=O)(=O)N(Cc1ccc(-c2noc(C(F)(F)F)n2)cc1)C(C)C [Compound 1.83, N-isopropyl-2-methoxy-N-[[4-[5-(trifluoromethyl)-1,2,4-oxadiazol-3-yl]phenyl]methyl] ethanesulfonamide] | ≥ 80 | ≥ 80 |  | ≥ 80
CCCN(Cc1ccc(-c2noc(C(F)(F)F)n2)cc1)S(=O)(=O)CC(=O)OC [Compound 1.76, methyl 2-[propyl-[[4-[5-(trifluoromethyl)-1,2,4-oxadiazol-3-yl]phenyl]methyl]sulfamoyl]acetate] | ≥ 80 | ≥ 80 |  | ≥ 80
O=S(=O)(Cc1ccc(Cl)cc1F)NCc1ccc(-c2noc(C(F)(F)F)n2)cc1 [Compound 3.6, 1-(4-chloro-2-fluoro-phenyl)-N-[[4-[5-(trifluoromethyl)-1,2,4-oxadiazol-3-yl]phenyl]methyl] methanesulfonamide] | ≥ 80 |  | 140 to 144 | 
